This is an account of results in patent US10570117B2, “Phenylimidazole compound” (Otsuka Pharmaceutical Factory, Inc., priority 2015, dated 2020).

The structures appear in SMILES notation. Converted amounts (≈) assume the structure as drawn. Where two headings read alike, the source gives them in different places.

Data set [1] has as its system lipoprotein lipase (LPL) gene. The data set is described as follows: LPL mRNA elevating action (RT-PCR quantification of LPL mRNA in C2Cl2 cells). Format: cell-based, mouse. As to conditions: Mus musculus, 24 h, compound 10 μM, ratio relative to the amount of LPL mRNA in cells with DMSO only, read-out: Rate of increase in LPL mRNA. In short, it runs like this: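 Mouse striated-muscle C2Cl2 cells in DMEM with 10% FBS exposed to compounds at 10 μM for 24 h. LPL mRNA quantified by RT-PCR and real-time PCR (20 cycles), expressed as ratio to DMSO-only cells set at 1.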

The nature of data set [2]: Solubility in gastric juice or intestinal juice model fluid (precipitation method using DMSO). Format: physicochemical. The following applies: room temperature. In a few lines:
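Compound in DMSO added to JP disintegration test fluid 1 (pH 1.2) or fluid 2 (pH 6.8) and shaken 24 h at room temperature. After filtration, dissolved concentration (μg/mL) determined by UV absorbance against compound calibration curves.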

The mark [3] stands for this setting: pH 1.2, simulated gastric fluid, kinetic from dmso stock, 1st fluid for Disintegration Test of Japanese Pharmacopoeia (pH: 1.2), read-out: Solubility (μg/mL) 1st fluid.
[4] abbreviates: pH 6.8, kinetic from dmso stock, 2nd fluid for Disintegration Test of Japanese Pharmacopoeia (pH: 6.8), read-out: Solubility (μg/mL) 2nd fluid.

`COc1cc(OCc2ccc(C(F)(F)F)nc2)ccc1-c1c(C)nc(-c2ccc(Cl)nc2)n1C` [Example 153, 2-chloro-5-[5-[2-methoxy-4-((6-(trifluoromethyl)pyridin-3-yl)methoxy)phenyl]-1,4-dimethyl-1H-imidazol-2-yl]pyridine] displayed a melting point of 148 to 150 °C. In addition, in data set [1], the fold induction at 10 µM turned out to be 4.61. For the same compound, the solubility at 24 h in data set [2] (setting [3]) was above 98 µg/mL. For the same compound, the solubility at 24 h in data set [2] (setting [4]) was 1.7 µg/mL (≈ 3.48 µM).

Compound `COc1cc(OCc2ccc(C(F)(F)F)nc2)ccc1-c1nc(-c2ccc(Cl)nc2)n(CC2CC2)c1C` [Example 154] gave a melting point of 110 to 112 °C. The fold induction at 10 µM in data set [1] was determined as 5.78. Also, the solubility at 24 h in data set [2] (setting [3]) is 104 µg/mL (≈ 196 µM). Also, in data set [2] (setting [4]), the solubility at 24 h turned out to be 2 µg/mL (≈ 3.78 µM).

`COc1cc(OCc2ccc(C(F)(F)F)nc2)ccc1-c1c(C)nc(-c2ccc(Cl)nc2)n1CC1CC1` [Example 155] returned a melting point of 164 to 166 °C. Also, the fold induction at 10 µM in data set [1] was 3.06. Besides, the solubility at 24 h in data set [2] (setting [3]) is above 106 µg/mL. In addition, in data set [2] (setting [4]), the solubility at 24 h was 3 µg/mL (≈ 5.67 µM).

Turning to `COc1cc(OCc2ccc(C(F)(F)F)cn2)ccc1-c1c(C)nc(-c2ccc(Cl)nc2)n1CC1CC1` [Example 157], the melting point lay within 145 to 148 °C. Further, in data set [1], the fold induction at 10 µM stood at 4.05. Moreover, the solubility at 24 h in data set [2] (setting [3]) was 106 µg/mL (≈ 199 µM). The solubility at 24 h in data set [2] (setting [4]) came to 1.9 µg/mL (≈ 3.59 µM).

`COc1cc(OCc2ccc(C(F)(F)F)nc2)ccc1-c1c(C)nc(-c2ccc(F)nc2)n1C` [Example 161] gave a melting point of 123 to 126 °C. The fold induction at 10 µM in data set [1] came to 3.06. In data set [2] (setting [3]), the solubility at 24 h was above 94 µg/mL. Besides, the solubility at 24 h in data set [2] (setting [4]) was 3.9 µg/mL (≈ 8.25 µM).

Take `COc1cc(OCc2ccc(C(F)(F)F)cn2)ccc1-c1c(C)nc(-c2ccc(Cl)nc2)n1C` [Example 165]: the melting point lay in the range of 152 to 154 °C. Besides, in data set [1], the fold induction at 10 µM is 3.34. Further, the solubility at 24 h in data set [2] (setting [3]) was 96 µg/mL (≈ 196 µM). In addition, in data set [2] (setting [4]), the solubility at 24 h came out at 2.1 µg/mL (≈ 4.3 µM).

As to `COCn1cc(-c2ccc(OCc3ccc(C(F)(F)F)cn3)cc2OC)nc1-c1ccc(Cl)nc1` [Example 167], the melting point was 138 to 140 °C. Besides, the fold induction at 10 µM in data set [1] is 2.23. Moreover, in data set [2] (setting [3]), the solubility at 24 h was 100 µg/mL (≈ 199 µM). In data set [2] (setting [4]), the solubility at 24 h came out at 0.4 µg/mL (≈ 0.792 µM).

As to `COc1cc(OCc2ccc(C(F)(F)F)cn2)ccc1-c1nc(-c2ccc(F)nc2)n(C)c1Cl` [Example 169, 2-[[4-(5-chloro-2-(6-fluoropyridin-3-yl)-1-methyl-1H-imidazol-4-yl)-3-methoxyphenoxy]methyl]-5-(trifluoromethyl)pyridine], the melting point was 158 to 160 °C (dec.). Further, the fold induction at 10 µM in data set [1] was found to be 3.12. The solubility at 24 h in data set [2] (setting [3]) was 96.3 µg/mL (≈ 195 µM). In addition, the solubility at 24 h in data set [2] (setting [4]) is below 0.4 µg/mL.

With `COc1cc(-c2[nH]c(C3CCCC(F)(F)C3)nc2Br)ccc1OCc1ccc(C(F)(F)F)cn1` (centres unmarked) [Example 170], the melting point lay within 158 to 160 °C. Further, the fold induction at 10 µM in data set [1] stood at 3.36. In addition, the solubility at 24 h in data set [2] (setting [3]) was 105 µg/mL (≈ 191 µM). Moreover, in data set [2] (setting [4]), the solubility at 24 h stood at 1.3 µg/mL (≈ 2.38 µM).

As to `COc1cc(OCc2ncc(Br)cc2F)ccc1-c1[nH]c(-c2ccc(F)nc2)nc1Cl` [Example 175], the melting point lay in the range of 122 to 124 °C. Also, the fold induction at 10 µM in data set [1] was 3.94. For the same compound, in data set [2] (setting [3]), the solubility at 24 h is 10 µg/mL (≈ 19.7 µM). Moreover, the solubility at 24 h in data set [2] (setting [4]) is 2.5 µg/mL (≈ 4.92 µM).

`COc1cc(-c2[nH]c(C3CC(F)(F)C3)nc2Br)ccc1OCc1ccc(C(F)(F)F)nc1` [Example 178]: the melting point was in the range of 168 to 170 °C. In data set [1], the fold induction at 10 µM was found to be 3.58. Also, the solubility at 24 h in data set [2] (setting [3]) was 98.5 µg/mL (≈ 190 µM). Besides, the solubility at 24 h in data set [2] (setting [4]) turned out to be 1.7 µg/mL (≈ 3.28 µM).

For `COc1cc(-c2[nH]c(C3CC(F)(F)C3)nc2Cl)ccc1OCc1ccc(C(F)(F)F)nc1` [Example 179], the melting point was 170 to 174 °C. For the same compound, the fold induction at 10 µM in data set [1] was 2.66. Further, in data set [2] (setting [3]), the solubility at 24 h was 25.8 µg/mL (≈ 54.5 µM). In data set [2] (setting [4]), the solubility at 24 h was 2.3 µg/mL (≈ 4.85 µM).

In turn, `COc1cc(OCc2ccc(C(F)(F)F)nc2)ccc1-c1[nH]c(C2CC(F)(F)C2)nc1Cl` [Example 181] gave a melting point of 199 to 201 °C. The fold induction at 10 µM in data set [1] was 4.53. In addition, in data set [2] (setting [3]), the solubility at 24 h is 93.4 µg/mL (≈ 197 µM). Also, the solubility at 24 h in data set [2] (setting [4]) was below 0.3 µg/mL.

For `COc1cc(OCc2ccc(C(F)(F)F)cn2)ccc1-c1[nH]c(C2CCCC(F)(F)C2)nc1Cl` (centres unmarked) [Example 182], the melting point fell in the range of 162 to 164 °C. Besides, the fold induction at 10 µM in data set [1] turned out to be 3.41. In data set [2] (setting [3]), the solubility at 24 h was 95.5 µg/mL (≈ 190 µM). Moreover, the solubility at 24 h in data set [2] (setting [4]) worked out at 1.9 µg/mL (≈ 3.79 µM).

Compound `COc1cc(OCc2ccc(C(F)(F)F)cn2)ccc1-c1[nH]c(C2CCCC(F)(F)C2)nc1Br` (centres unmarked) [Example 183] yielded a melting point of 170 to 171 °C. The fold induction at 10 µM in data set [1] is 4.26. The solubility at 24 h in data set [2] (setting [3]) was 99 µg/mL (≈ 181 µM). Further, the solubility at 24 h in data set [2] (setting [4]) worked out at 1.1 µg/mL (≈ 2.01 µM).

The compound `COc1cc(OCc2ncccc2C#N)ccc1-c1[nH]c(C2CCC(F)(F)CC2)nc1Cl` [Example 185] displayed a melting point of 161 to 162 °C. For the same compound, in data set [1], the fold induction at 10 µM came to 2.41. In addition, the solubility at 24 h in data set [2] (setting [3]) was 87.4 µg/mL (≈ 190 µM). Besides, the solubility at 24 h in data set [2] (setting [4]) turned out to be 23.1 µg/mL (≈ 50.3 µM).

Compound `COc1cc(OCc2ccc(C(F)(F)F)cn2)ccc1-c1[nH]c(C2CC(F)(F)C2)nc1Cl` [Example 188] registered a melting point of 191 to 193 °C. For the same compound, in data set [1], the fold induction at 10 µM stood at 2.95. The solubility at 24 h in data set [2] (setting [3]) is 86.4 µg/mL (≈ 182 µM). Further, the solubility at 24 h in data set [2] (setting [4]) came out at 1.9 µg/mL (≈ 4.01 µM).

The compound `COc1cc(-c2[nH]c(C3CCC(F)(F)C3)nc2Cl)ccc1OCc1ccc(C(F)(F)F)cn1` (centres unmarked) [Example 189] yielded a melting point of 159 to 161 °C. The fold induction at 10 µM in data set [1] is 3.51. In data set [2] (setting [3]), the solubility at 24 h is 89 µg/mL (≈ 182 µM). Also, the solubility at 24 h in data set [2] (setting [4]) stood at 11.6 µg/mL (≈ 23.8 µM).

On to `COc1cc(-c2[nH]c(C3CC(F)(F)C3)nc2Br)ccc1OCc1ccc(C(F)(F)F)cn1` [Example 190], for which the melting point is 151 to 157 °C. Besides, the fold induction at 10 µM in data set [1] turned out to be 3.58. Besides, the solubility at 24 h in data set [2] (setting [3]) was 92.5 µg/mL (≈ 178 µM). The solubility at 24 h in data set [2] (setting [4]) was found to be 2 µg/mL (≈ 3.86 µM).

For `COc1cc(-c2[nH]c(C3CC(F)(F)C3)nc2Cl)ccc1OCc1ccc(C(F)(F)F)cn1` [Example 191], the melting point was 201 to 203 °C (dec.). The fold induction at 10 µM in data set [1] came to 4.06. Further, the solubility at 24 h in data set [2] (setting [3]) was 25.9 µg/mL (≈ 54.7 µM). Besides, the solubility at 24 h in data set [2] (setting [4]) is 1.7 µg/mL (≈ 3.59 µM).

As to `COc1cc(-c2[nH]c(C3CCC3)nc2Cl)ccc1OCc1ccc(C(F)(F)F)cn1` [Example 193], the melting point was 158 to 170 °C. In data set [1], the fold induction at 10 µM worked out at 4.32. Moreover, the solubility at 24 h in data set [2] (setting [3]) was 86.4 µg/mL (≈ 197 µM). Also, in data set [2] (setting [4]), the solubility at 24 h stood at 0.8 µg/mL (≈ 1.83 µM).

On to `COc1cc(-c2[nH]c(C3CCCC3)nc2Cl)ccc1OCc1ccc(C(F)(F)F)cn1` [Example 194], for which the melting point is 182 to 184 °C (dec.). Besides, in data set [1], the fold induction at 10 µM turned out to be 3.92. Also, the solubility at 24 h in data set [2] (setting [3]) was above 90 µg/mL. For the same compound, the solubility at 24 h in data set [2] (setting [4]) was determined as 0.5 µg/mL (≈ 1.11 µM).

As for `COc1cc(OCc2ncccc2C(F)(F)F)ccc1-c1[nH]c(C2CCC(F)(F)CC2)nc1Cl` [Example 195], the melting point was in the range of 162 to 164 °C. Moreover, the fold induction at 10 µM in data set [1] came to 3.34. The solubility at 24 h in data set [2] (setting [3]) is above 100 µg/mL. Moreover, the solubility at 24 h in data set [2] (setting [4]) worked out at 0.6 µg/mL (≈ 1.2 µM).
